Measured values taken from publication PMC12827894, “Structure-guided design of picomolar-level macrocyclic TRPC5 channel inhibitors with antidepressant activity” (Acta Pharmaceutica Sinica. B, 2025).

Legend:
[1] = molecular target: V1a (Homo sapiens, UniProt P37288); assay: cell-based; settings: read-out: Antagonist JDIC-127 @10 μmol/L
[2] = molecular target: T1, 5-HT3A (Homo sapiens, UniProt P46098); type: cell-based
T1 construct: ICE Bioscience ICESTP SafetyOne44 Panel

[3] = in vivo; settings: male, C57BL/6, mouse, B/P
[4] = molecular target: T2, 5-HTT (Homo sapiens, UniProt P31645); assay: SafetyOne44 panel: 5-HTT; type: cell-based; settings: 10 μmol/L, read-out: Antagonist JDIC-127 @10 μmol/L
T2 construct: purchased ICE Bioscience ICESTP™ SafetyOne44 Panel
T2 sequence (P31645 whole entry): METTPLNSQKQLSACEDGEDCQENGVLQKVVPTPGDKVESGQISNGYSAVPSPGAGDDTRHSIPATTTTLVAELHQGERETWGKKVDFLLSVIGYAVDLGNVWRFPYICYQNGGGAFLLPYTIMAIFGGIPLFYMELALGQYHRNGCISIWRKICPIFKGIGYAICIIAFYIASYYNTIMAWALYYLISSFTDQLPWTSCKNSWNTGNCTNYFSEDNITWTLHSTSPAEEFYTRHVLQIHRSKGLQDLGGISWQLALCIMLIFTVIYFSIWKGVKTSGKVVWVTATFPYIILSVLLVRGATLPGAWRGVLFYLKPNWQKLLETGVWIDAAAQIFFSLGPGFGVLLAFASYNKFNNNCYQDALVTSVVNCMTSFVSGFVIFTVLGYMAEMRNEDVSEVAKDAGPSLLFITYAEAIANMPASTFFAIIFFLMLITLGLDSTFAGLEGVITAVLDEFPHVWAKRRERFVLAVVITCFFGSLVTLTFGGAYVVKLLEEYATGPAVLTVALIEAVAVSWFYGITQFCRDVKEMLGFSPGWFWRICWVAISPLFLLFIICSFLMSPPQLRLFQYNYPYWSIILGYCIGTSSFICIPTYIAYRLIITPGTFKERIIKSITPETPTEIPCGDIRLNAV

[5] = molecular target: T3, α2A (Homo sapiens, UniProt P08913); assay: cell-based; type: cell-based
T3 construct: purchased ICE Bioscience ICESTP SafetyOne44 Panel
T3 sequence (P08913 whole entry): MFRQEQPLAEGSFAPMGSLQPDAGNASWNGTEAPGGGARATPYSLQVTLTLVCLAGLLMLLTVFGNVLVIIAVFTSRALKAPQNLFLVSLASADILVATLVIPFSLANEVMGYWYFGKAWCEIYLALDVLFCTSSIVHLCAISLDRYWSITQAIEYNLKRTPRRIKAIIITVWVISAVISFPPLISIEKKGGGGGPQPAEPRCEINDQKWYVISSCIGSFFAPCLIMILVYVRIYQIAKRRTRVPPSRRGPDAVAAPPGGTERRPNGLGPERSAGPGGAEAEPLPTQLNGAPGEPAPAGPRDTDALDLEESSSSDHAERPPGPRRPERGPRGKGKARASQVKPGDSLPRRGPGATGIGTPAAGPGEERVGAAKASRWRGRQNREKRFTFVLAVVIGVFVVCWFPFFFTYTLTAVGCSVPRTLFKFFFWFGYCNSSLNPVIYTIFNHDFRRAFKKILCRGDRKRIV

[6] = molecular target: T4, TRPC5 (Homo sapiens, UniProt Q9UL62); type: cell-based; settings: 100 nmol/L EA; read-out: IC50, TRPC5, whole-cell patch-clamp
T4 sequence (Q9UL62 1-973): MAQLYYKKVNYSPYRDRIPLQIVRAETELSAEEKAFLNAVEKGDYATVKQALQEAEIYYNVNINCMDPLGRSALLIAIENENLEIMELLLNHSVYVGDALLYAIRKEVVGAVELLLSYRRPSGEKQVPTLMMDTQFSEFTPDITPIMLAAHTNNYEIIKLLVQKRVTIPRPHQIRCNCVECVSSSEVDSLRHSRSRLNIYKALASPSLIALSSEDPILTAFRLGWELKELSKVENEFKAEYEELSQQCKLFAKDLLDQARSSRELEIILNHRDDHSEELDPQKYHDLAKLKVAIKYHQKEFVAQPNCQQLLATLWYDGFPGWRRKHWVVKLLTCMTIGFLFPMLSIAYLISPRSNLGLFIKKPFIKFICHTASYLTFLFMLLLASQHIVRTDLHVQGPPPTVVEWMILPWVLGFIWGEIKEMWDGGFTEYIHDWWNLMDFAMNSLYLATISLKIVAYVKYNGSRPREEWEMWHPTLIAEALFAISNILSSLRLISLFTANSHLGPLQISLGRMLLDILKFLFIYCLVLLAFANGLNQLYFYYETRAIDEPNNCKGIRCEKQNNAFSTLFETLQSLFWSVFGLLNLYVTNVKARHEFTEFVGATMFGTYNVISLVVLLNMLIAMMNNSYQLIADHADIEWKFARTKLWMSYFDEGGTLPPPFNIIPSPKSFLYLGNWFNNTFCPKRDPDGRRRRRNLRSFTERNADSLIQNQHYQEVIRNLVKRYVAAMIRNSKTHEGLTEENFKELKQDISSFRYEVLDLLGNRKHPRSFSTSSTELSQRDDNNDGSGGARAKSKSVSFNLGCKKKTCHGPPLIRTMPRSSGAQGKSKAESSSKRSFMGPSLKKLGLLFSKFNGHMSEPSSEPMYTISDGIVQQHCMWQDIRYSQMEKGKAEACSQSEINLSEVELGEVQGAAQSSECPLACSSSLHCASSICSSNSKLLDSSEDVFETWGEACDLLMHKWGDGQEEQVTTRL

[7] = molecular target: TRPV1 (Homo sapiens, UniProt Q8NER1); assay: Patch-clamp selectivity, TRPV1; type: cell-based; settings: 10 μmol/L
[8] = molecular target: T5, ACHE (Homo sapiens, UniProt P22303); assay: biochemical; settings: 10 μmol/L, read-out: Antagonist JDIC-127 @10 μmol/L
T5 construct: purchased ICE Bioscience ICESTP™ SafetyOne44 Panel

[9] = molecular target: T6, NR1/NR2B (Homo sapiens, UniProt Q05586+Q13224); assay: SafetyOne44 panel ion channels: NR1/NR2B; type: cell-based; settings: NR1/NR2B, 5 μmol/L
T6 construct: ICE Bioscience ICESTP SafetyOne44 Panel
T6 sequence (Q13224 27-1484, other chains not shown): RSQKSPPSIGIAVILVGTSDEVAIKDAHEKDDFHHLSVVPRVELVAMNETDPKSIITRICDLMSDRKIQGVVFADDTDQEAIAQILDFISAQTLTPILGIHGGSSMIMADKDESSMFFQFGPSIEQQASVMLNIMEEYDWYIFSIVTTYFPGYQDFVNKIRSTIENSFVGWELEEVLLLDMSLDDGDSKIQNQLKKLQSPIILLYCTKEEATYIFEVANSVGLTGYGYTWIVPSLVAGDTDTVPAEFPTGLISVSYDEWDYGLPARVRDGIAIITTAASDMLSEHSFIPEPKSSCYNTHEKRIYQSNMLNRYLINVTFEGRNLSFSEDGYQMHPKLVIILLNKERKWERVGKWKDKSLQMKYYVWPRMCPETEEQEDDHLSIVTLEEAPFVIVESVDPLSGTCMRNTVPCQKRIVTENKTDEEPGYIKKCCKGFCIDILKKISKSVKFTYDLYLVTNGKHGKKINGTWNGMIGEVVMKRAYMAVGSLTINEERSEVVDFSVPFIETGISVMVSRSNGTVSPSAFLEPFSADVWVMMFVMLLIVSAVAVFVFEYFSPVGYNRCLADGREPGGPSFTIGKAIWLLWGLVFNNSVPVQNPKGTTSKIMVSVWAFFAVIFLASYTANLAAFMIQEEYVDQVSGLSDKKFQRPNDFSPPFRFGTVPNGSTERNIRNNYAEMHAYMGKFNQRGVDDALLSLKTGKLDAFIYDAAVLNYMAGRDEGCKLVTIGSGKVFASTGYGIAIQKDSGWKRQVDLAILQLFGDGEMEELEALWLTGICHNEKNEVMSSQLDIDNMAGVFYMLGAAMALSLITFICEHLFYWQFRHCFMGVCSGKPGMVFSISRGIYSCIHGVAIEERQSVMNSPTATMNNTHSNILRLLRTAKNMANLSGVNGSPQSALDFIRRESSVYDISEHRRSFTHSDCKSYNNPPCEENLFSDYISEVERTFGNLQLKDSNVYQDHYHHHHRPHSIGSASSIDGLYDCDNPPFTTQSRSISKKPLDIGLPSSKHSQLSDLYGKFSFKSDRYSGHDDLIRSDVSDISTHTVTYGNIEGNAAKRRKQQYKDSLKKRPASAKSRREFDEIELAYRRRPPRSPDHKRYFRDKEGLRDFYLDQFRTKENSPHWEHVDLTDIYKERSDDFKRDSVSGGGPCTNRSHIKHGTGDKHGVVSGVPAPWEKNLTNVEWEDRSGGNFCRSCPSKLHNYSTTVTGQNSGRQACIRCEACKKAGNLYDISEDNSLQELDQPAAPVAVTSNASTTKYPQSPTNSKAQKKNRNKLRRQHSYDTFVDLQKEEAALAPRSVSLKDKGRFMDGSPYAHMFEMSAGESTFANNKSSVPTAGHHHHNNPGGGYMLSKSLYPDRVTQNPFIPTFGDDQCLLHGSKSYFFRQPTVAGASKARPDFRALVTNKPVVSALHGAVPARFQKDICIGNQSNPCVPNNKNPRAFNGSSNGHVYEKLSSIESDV

[10] = molecular target: T7, β2 (Homo sapiens, UniProt P07550); assay: SafetyOne44 panel: β2; type: cell-based
T7 construct: purchased ICE Bioscience ICESTP™ SafetyOne44 Panel
T7 sequence (P07550 whole entry): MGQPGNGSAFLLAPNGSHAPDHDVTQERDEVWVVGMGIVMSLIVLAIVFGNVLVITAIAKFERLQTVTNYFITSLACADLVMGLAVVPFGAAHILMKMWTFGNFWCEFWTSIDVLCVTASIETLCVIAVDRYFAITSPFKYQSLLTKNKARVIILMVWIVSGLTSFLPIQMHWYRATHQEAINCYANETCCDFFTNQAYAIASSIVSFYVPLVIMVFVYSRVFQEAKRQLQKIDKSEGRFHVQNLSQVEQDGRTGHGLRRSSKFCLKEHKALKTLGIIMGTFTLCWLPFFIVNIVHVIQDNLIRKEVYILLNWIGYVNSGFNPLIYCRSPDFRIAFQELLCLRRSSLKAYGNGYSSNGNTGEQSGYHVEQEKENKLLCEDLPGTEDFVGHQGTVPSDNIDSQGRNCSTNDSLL

[11] = molecular target: T8, TRPC4 (Homo sapiens, UniProt Q9UBN4); assay: Whole-cell patch-clamp, TRPC4, 100 nmol/L EA; type: cell-based; settings: HEK293T
T8 construct: expressed in transfected cells
T8 sequence (Q9UBN4 whole entry): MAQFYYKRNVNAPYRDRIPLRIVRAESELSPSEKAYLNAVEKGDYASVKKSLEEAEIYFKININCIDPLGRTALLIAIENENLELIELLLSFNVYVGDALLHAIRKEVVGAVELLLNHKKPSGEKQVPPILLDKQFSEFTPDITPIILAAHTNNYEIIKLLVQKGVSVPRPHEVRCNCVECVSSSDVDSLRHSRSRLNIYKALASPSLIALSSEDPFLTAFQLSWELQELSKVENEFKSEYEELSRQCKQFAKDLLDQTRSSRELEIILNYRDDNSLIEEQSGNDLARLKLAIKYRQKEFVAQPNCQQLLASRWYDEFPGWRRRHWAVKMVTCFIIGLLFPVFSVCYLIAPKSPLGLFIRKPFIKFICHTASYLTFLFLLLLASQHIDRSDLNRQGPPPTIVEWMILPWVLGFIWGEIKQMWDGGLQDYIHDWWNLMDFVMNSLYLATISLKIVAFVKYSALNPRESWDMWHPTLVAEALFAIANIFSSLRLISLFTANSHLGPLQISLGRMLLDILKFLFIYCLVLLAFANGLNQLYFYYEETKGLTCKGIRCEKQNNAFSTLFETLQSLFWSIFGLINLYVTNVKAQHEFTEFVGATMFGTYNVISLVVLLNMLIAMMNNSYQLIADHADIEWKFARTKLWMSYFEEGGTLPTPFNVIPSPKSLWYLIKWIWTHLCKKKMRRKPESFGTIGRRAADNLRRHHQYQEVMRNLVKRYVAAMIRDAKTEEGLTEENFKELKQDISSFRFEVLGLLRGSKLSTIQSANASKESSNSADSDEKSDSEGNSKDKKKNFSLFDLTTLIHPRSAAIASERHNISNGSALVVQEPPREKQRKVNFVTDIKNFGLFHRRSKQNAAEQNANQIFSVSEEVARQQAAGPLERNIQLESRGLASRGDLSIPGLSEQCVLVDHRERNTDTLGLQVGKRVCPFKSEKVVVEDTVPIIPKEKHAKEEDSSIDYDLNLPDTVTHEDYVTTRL
Excerpt: Given that TRPC4 and TRPC5 are highly similar and often form heteromeric with TRPC1, we evaluated JDIC-127's activity on TRPC4, TRPC1/4, and TRPC1/5 using whole-cell patch-clamp recordings under agonist stimulation with 100 nmol/L EA in HEK293T cells. […].
For electrophysiological activity testing of compounds against TRPC4 and TRPC5, stably expressed TRPC5 or TRPC4 cells were used for whole-cell patch-clamp recordings, employing a HEKA EPC10 amplifier and […] software (https://www.heka.com/downloads/downloads_main.html#down_patchmaster). Prior to recording, cells were induced with 1 μg/mL tetracycline for 24 h. For TRPC1/4 or TRPC1/5 heteromers, plasmids TRPC1 and TRPC5 or TRPC1 and TRPC4 were co-transfected into HEK293T cells. After 48 to 72 h of transfection, testing was performed. A 1-s ramp protocol from −100 to +100 mV at 0.2 Hz was applied, as previously described. The extracellular solution consisted of 140 mmol/L NaCl, 1 mmol/L MgCl2, 2 mmol/L CaCl2, 10 mmol/L Hepes, 5 mmol/L KCl, and 10 mmol/L D-glucose, with pH adjusted to 7.4 using NaOH. […] The half-maximal inhibitory concentration (IC50) of drugs was determined by recording currents at a +100 mV pulse and analyzing current amplitudes at varying drug concentrations, with IC50 values calculated using the Hill equation. […]

[12] = molecular target: T9, TRPC5 F576A (Homo sapiens, UniProt Q9UL62, F576A); assay: Inhibition of TRPC5 mutant F576A; type: cell-based; settings: TRPC5 F576A vs wild type
T9 construct: full-length wild-type or mutant TRPC5 was cloned into a pcDNA3.1 vector; expressed in transfected cells; host or cells: HEK293T

T1 sequence (P46098 24-478, species assumed): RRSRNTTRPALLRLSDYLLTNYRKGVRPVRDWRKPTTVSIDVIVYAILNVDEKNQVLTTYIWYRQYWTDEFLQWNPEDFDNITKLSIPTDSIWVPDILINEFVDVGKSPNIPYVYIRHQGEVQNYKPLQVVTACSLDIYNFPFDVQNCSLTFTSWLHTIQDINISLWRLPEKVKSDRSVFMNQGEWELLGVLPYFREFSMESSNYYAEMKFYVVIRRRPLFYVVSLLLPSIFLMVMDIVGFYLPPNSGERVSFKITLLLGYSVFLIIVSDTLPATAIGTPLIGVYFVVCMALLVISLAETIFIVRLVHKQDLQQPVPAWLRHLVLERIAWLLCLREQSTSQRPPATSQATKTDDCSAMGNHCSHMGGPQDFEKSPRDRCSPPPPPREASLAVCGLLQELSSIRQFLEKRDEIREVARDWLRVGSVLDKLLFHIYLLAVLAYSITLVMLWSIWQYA
Sequence of V1a (P37288 whole entry): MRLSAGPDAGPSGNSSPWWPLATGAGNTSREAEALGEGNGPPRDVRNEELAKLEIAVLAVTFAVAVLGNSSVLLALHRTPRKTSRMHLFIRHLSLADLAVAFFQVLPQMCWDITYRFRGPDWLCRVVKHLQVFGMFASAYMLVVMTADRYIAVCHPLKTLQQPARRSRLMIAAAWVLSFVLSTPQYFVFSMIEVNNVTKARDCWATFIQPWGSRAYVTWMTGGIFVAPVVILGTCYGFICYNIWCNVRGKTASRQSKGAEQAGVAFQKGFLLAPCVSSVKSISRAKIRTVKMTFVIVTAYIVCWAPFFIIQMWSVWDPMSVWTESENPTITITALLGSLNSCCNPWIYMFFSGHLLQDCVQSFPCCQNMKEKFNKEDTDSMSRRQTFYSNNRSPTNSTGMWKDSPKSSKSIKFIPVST

## O=c1c2c3nc(n2Cc2ccc(Cl)cc2)Oc2ccc(F)c(c2)OCCCCCCn3c(=O)n1CCCO [JDIC-127]
[1]
  inhibition at 10 µM: -0.83%
[2]; agonist mode
  Agonist JDIC-127 @ 5 μmol/L: 0.39%
[2]; antagonist mode
  Antagonist JDIC-127 @5 μmol/L: 17.73%
[3]; iv, 2 mg/kg, 2 min
  Kp: 1.1
[3]; iv, 2 mg/kg, 45 min
  Kp: 3.85
[3]; iv, 2 mg/kg, 180 min
  Kp: 7.4
[3]; po, 10 mg/kg, 2 min
  Kp: 3.48
[3]; po, 10 mg/kg, 45 min
  Kp: 2.51
[3]; po, 10 mg/kg, 180 min
  Kp: 0.32
[4]
  inhibition at 10 µM: -31.8%
[5]; agonist mode
  Agonist JDIC-127 @10 μmol/L: –1.14%
[5]; antagonist mode, 10 μmol/L, read-out: Antagonist JDIC-127 @10 μmol/L
  inhibition at 10 µM: -8.62%
[6]
  IC50: 0.374 nM
[7]
  inhibition at 10 µM: < 33%
[8]
  inhibition at 10 µM: 0.88%
[9]; agonist mode
  Agonist JDIC-127 @ 5 μmol/L: 1.53%
[9]; antagonist mode
  Antagonist JDIC-127 @5 μmol/L: 17.19%
[10]; β2, agonist mode
  Agonist JDIC-127 @10 μmol/L: –1.53%
[10]; β2, antagonist mode, 10 μmol/L, read-out: Antagonist JDIC-127 @10 μmol/L
  inhibition at 10 µM: 19.6%
[11]
  IC50: 0.001 nM
[12]
  effect of mutation on inhibitory potency of JDIC-127: significantly diminished
